# Experimental data reported in the supplement of paper PMC6045584.
# ± gives the standard deviation of the averaged measurements.
# What was measured:
# IMATINIB = compound: Cc1ccc(NC(=O)c2ccc(CN3CCN(C)CC3)cc2)cc1Nc1nccc(-c2cccnc2)n1 [IMATINIB]; assay: surviving fraction relative to DMSO-only wells; higher = less growth inhibition; settings: exposure time: 5 days
# In short: (§1)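 Tumour cell lines were seeded in log phase at 250–500 cells per well into 384-well plates. Starting 24 hours later, inhibitors were present continuously for five days at 0.5, 1, 5, 10, 50, 100, 500 and 1000 nM. Surviving fraction, from CellTiter-Glo luminescence, is normalised to the median of DMSO-only wells. Three screens per line were required, with replicate Pearson r >0.7 and median Z' >0.3 for a line to be kept.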
# BLEOMYCIN = compound: Cc1c(N)nc([C@H](CC(N)=O)NC[C@H](N)C(N)=O)nc1C(=O)N[C@H](C(=O)N[C@H](C)[C@@H](O)[C@H](C)C(=O)N[C@H](C(=O)NCCc1nc(-c2nc(C(=O)NCCC[S+](C)C)cs2)cs1)[C@@H](C)O)[C@@H](OC1OC(CO)C(O)C(O)C1OC1OC(CO)C(O)C(OC(N)=O)C1O)c1cnc[nH]1 [BLEOMYCIN]; assay: as above; settings: exposure time: 5 days
# In short: as §1
Test System,surviving fraction (IMATINIB; 0.5 nM),surviving fraction (IMATINIB; 1 nM),surviving fraction (IMATINIB; 5 nM),surviving fraction (IMATINIB; 10 nM),surviving fraction (IMATINIB; 100 nM),surviving fraction (IMATINIB; 500 nM),surviving fraction (IMATINIB; 1000 nM),surviving fraction (BLEOMYCIN; 0.5 nM),surviving fraction (BLEOMYCIN; 1 nM),surviving fraction (BLEOMYCIN; 5 nM),surviving fraction (BLEOMYCIN; 10 nM),surviving fraction (BLEOMYCIN; 50 nM),surviving fraction (BLEOMYCIN; 100 nM),surviving fraction (BLEOMYCIN; 500 nM),surviving fraction (BLEOMYCIN; 1000 nM),surviving fraction (IMATINIB; 50 nM)
G292 BONE,1.01 ± 0.037,1.038 ± 0.0097,1.09 ± 0.024,1.05 ± 0.024,1.04 ± 0.028,0.862 ± 0.029,0.923 ± 0.065,0.912 ± 0.048,0.887 ± 0.0095,0.801 ± 0.052,0.741 ± 0.067,0.553 ± 0.027,0.474 ± 0.02,0.315 ± 0.017,0.276 ± 0.0065,–
HCC38 BREAST,1.32 ± 0.15,1.13 ± 0.13,1.39 ± 0.13,1.3 ± 0.27,1.46 ± 0.21,1.08 ± 0.12,1.1 ± 0.029,0.725 ± 0.19,0.725 ± 0.085,0.793 ± 0.22,0.776 ± 0.18,0.91 ± 0.23,0.781 ± 0.11,0.697 ± 0.14,0.498 ± 0.046,1.31 ± 0.15
HCC70 BREAST,1.116 ± 0.0051,1.08 ± 0.071,1.04 ± 0.04,1.1 ± 0.054,1.15 ± 0.043,–,1.45 ± 0.69,0.965 ± 0.055,1 ± 0.086,0.935 ± 0.13,0.981 ± 0.026,0.835 ± 0.052,0.746 ± 0.052,0.606 ± 0.097,0.47 ± 0.076,1.17 ± 0.11
HMLE3 BREAST,1.08 ± 0.038,1.14 ± 0.11,1.11 ± 0.08,1.21 ± 0.062,1.23 ± 0.13,1.16 ± 0.054,1.01 ± 0.089,0.873 ± 0.098,0.892 ± 0.032,0.858 ± 0.085,0.907 ± 0.046,0.933 ± 0.044,0.967 ± 0.055,0.956 ± 0.042,0.864 ± 0.064,1.14 ± 0.047
HMT3552 BREAST,1.01 ± 0.039,0.967 ± 0.041,1.04 ± 0.032,0.988 ± 0.057,1.17 ± 0.062,1.18 ± 0.047,1.16 ± 0.076,0.873,0.943,0.9,0.807,0.55,0.299,0.15,0.182,1.15 ± 0.061
HS57T BREAST,–,1 ± 0.062,1.14 ± 0.016,1.14 ± 0.024,1.09 ± 0.056,1.04 ± 0.034,1.01 ± 0.093,0.868 ± 0.026,0.91 ± 0.11,0.9263 ± 0.0091,0.918 ± 0.057,0.842 ± 0.032,0.723 ± 0.034,0.36 ± 0.041,0.225 ± 0.0065,1.17 ± 0.069
HS578T BREAST,1.23 ± 0.27,1.01 ± 0.11,1.02 ± 0.12,1.14 ± 0.27,1.07 ± 0.1,1.1 ± 0.16,1.2 ± 0.17,0.759 ± 0.12,0.774 ± 0.11,0.842 ± 0.043,0.783 ± 0.071,0.746 ± 0.074,0.596 ± 0.1,0.364 ± 0.021,0.359 ± 0.033,1.21 ± 0.18
